Consider 10 compounds from the NIST ThermoML archive (doi:10.1021/je201289w).

SMILES strings stand for the structures. Numbers after ± are expanded uncertainties.

The nature of one series: refractive index (Na D-line) (dimensionless). The conditions noted are these: 283.15 K; 101.33 kPa; Liquid; Standard Abbe refractometry.
Consider `CCn1cc[n+](C)c1.O=S(=O)([N-]S(=O)(=O)C(F)(F)F)C(F)(F)F`, for which the refractive index amounted to 1.42738 ± 0.00063.
`CCOS(=O)(=O)[O-].CCn1cc[n+](C)c1` [1-ethyl-3-methylimidazolium ethyl sulfate]: the refractive index was determined as 1.48317 ± 0.00062.
The same measure, in the same setting: in the case of `CCCCn1cc[n+](C)c1.O=S(=O)([N-]S(=O)(=O)C(F)(F)C(F)(F)C(F)(F)C(F)(F)F)C(F)(F)C(F)(F)C(F)(F)C(F)(F)F` it was 1.39249 ± 0.00064; in that of `CCn1cc[n+](C)c1.N#C[B-](C#N)(C#N)C#N` [1-ethyl-3-methylimidazolium tetracyanoborate], 1.45284 ± 0.00067; in that of `CCn1cc[n+](C)c1.N#CN=C=[N-]` [1-ethyl-3-methylimidazolium dicyanamide], 1.51774 ± 0.00066.
Regarding `CCn1cc[n+](C)c1.O=S(=O)([O-])O` [1-ethyl-3-methylimidazolium hydrogen sulfate], the refractive index was found to be 1.50042 ± 0.00061.
On the same count and under the same terms, in the case of `CCn1cc[n+](C)c1.F[B-](F)(F)F` [1-ethyl-3-methylimidazolium tetrafluoroborate] it was 1.41546 ± 0.00062.
`CCn1cc[n+](C)c1.N#C[S-]` [1-ethyl-3-methylimidazolium thiocyanate]: the refractive index was found to be 1.556 ± 0.00064.
For `CCn1cc[n+](C)c1.CS(=O)(=O)[O-]` [1-ethyl-3-methylimidazolium methanesulfonate], the refractive index was 1.49994 ± 0.00063.
On the same count and under the same terms, in the case of `CCC[N+]1(C)CCCC1.O=S(=O)([N-]S(=O)(=O)C(F)(F)F)C(F)(F)F` it was 1.42474 ± 0.00063.

The series is the same for the next values; noted with them: 288.15 K; 101.33 kPa; Liquid; Standard Abbe refractometry.
On to `CCn1cc[n+](C)c1.O=S(=O)([N-]S(=O)(=O)C(F)(F)F)C(F)(F)F`, for which the refractive index was 1.42594 ± 0.00063.
With `CCOS(=O)(=O)[O-].CCn1cc[n+](C)c1` [1-ethyl-3-methylimidazolium ethyl sulfate], the refractive index came to 1.48185 ± 0.00062.
On to `CCCCn1cc[n+](C)c1.O=S(=O)([N-]S(=O)(=O)C(F)(F)C(F)(F)C(F)(F)C(F)(F)F)C(F)(F)C(F)(F)C(F)(F)C(F)(F)F`, for which the refractive index is reported as 1.39104 ± 0.00064.
As to `CCn1cc[n+](C)c1.N#C[B-](C#N)(C#N)C#N` [1-ethyl-3-methylimidazolium tetracyanoborate], the refractive index is on record as 1.45108 ± 0.00066.
With `CCn1cc[n+](C)c1.N#CN=C=[N-]` [1-ethyl-3-methylimidazolium dicyanamide], the refractive index is on record as 1.51605 ± 0.00066.
Still for that read-out and setting: in the case of `CCn1cc[n+](C)c1.O=S(=O)([O-])O` [1-ethyl-3-methylimidazolium hydrogen sulfate] it was 1.49931 ± 0.00061.
On the same count and under the same terms, in the case of `CCn1cc[n+](C)c1.F[B-](F)(F)F` [1-ethyl-3-methylimidazolium tetrafluoroborate] it was 1.41423 ± 0.00062; in that of `CCn1cc[n+](C)c1.N#C[S-]` [1-ethyl-3-methylimidazolium thiocyanate], 1.5545 ± 0.00064.
Consider `CCn1cc[n+](C)c1.CS(=O)(=O)[O-]` [1-ethyl-3-methylimidazolium methanesulfonate], for which the refractive index amounted to 1.49855 ± 0.00063.
For the compound `CCC[N+]1(C)CCCC1.O=S(=O)([N-]S(=O)(=O)C(F)(F)F)C(F)(F)F`, the refractive index amounted to 1.42336 ± 0.00063.

The series is the same for the next values; noted with them: 293.15 K; 101.33 kPa; Liquid; Standard Abbe refractometry.
Consider `CCn1cc[n+](C)c1.O=S(=O)([N-]S(=O)(=O)C(F)(F)F)C(F)(F)F`, for which the refractive index is recorded as 1.42451 ± 0.00063.
With `CCOS(=O)(=O)[O-].CCn1cc[n+](C)c1` [1-ethyl-3-methylimidazolium ethyl sulfate], the refractive index was determined as 1.48053 ± 0.00062.
Consider `CCCCn1cc[n+](C)c1.O=S(=O)([N-]S(=O)(=O)C(F)(F)C(F)(F)C(F)(F)C(F)(F)F)C(F)(F)C(F)(F)C(F)(F)C(F)(F)F`, for which the refractive index is on record as 1.38955 ± 0.00064.
On the same count and under the same terms, the same measure for `CCn1cc[n+](C)c1.N#C[B-](C#N)(C#N)C#N` [1-ethyl-3-methylimidazolium tetracyanoborate]: 1.44936 ± 0.00066.
Regarding `CCn1cc[n+](C)c1.N#CN=C=[N-]` [1-ethyl-3-methylimidazolium dicyanamide], the refractive index was found to be 1.51441 ± 0.00065.
As to `CCn1cc[n+](C)c1.O=S(=O)([O-])O` [1-ethyl-3-methylimidazolium hydrogen sulfate], the refractive index is on record as 1.4982 ± 0.00061.
Regarding `CCn1cc[n+](C)c1.F[B-](F)(F)F` [1-ethyl-3-methylimidazolium tetrafluoroborate], the refractive index is reported as 1.413 ± 0.00062.
In the case of `CCn1cc[n+](C)c1.N#C[S-]` [1-ethyl-3-methylimidazolium thiocyanate], the refractive index was 1.55299 ± 0.00064.
Take `CCn1cc[n+](C)c1.CS(=O)(=O)[O-]` [1-ethyl-3-methylimidazolium methanesulfonate]: the refractive index is given as 1.49718 ± 0.00063.
Consider `CCC[N+]1(C)CCCC1.O=S(=O)([N-]S(=O)(=O)C(F)(F)F)C(F)(F)F`, for which the refractive index is on record as 1.42201 ± 0.00063.

Staying with this series, now noted: 298.15 K; 101.33 kPa; Liquid; Standard Abbe refractometry.
As to `CCn1cc[n+](C)c1.O=S(=O)([N-]S(=O)(=O)C(F)(F)F)C(F)(F)F`, the refractive index stood at 1.42309 ± 0.00063.
For the compound `CCOS(=O)(=O)[O-].CCn1cc[n+](C)c1` [1-ethyl-3-methylimidazolium ethyl sulfate], the refractive index was determined as 1.47921 ± 0.00062.
With `CCCCn1cc[n+](C)c1.O=S(=O)([N-]S(=O)(=O)C(F)(F)C(F)(F)C(F)(F)C(F)(F)F)C(F)(F)C(F)(F)C(F)(F)C(F)(F)F`, the refractive index is on record as 1.38807 ± 0.00064.
On to `CCn1cc[n+](C)c1.N#C[B-](C#N)(C#N)C#N` [1-ethyl-3-methylimidazolium tetracyanoborate], for which the refractive index was determined as 1.44763 ± 0.00066.
With `CCn1cc[n+](C)c1.N#CN=C=[N-]` [1-ethyl-3-methylimidazolium dicyanamide], the refractive index is recorded as 1.51278 ± 0.00065.
Consider `CCn1cc[n+](C)c1.O=S(=O)([O-])O` [1-ethyl-3-methylimidazolium hydrogen sulfate], for which the refractive index was found to be 1.4971 ± 0.00061.
In the case of `CCn1cc[n+](C)c1.F[B-](F)(F)F` [1-ethyl-3-methylimidazolium tetrafluoroborate], the refractive index is listed as 1.41177 ± 0.00062.
Regarding `CCn1cc[n+](C)c1.N#C[S-]` [1-ethyl-3-methylimidazolium thiocyanate], the refractive index is on record as 1.55149 ± 0.00064.
For `CCn1cc[n+](C)c1.CS(=O)(=O)[O-]` [1-ethyl-3-methylimidazolium methanesulfonate], the refractive index is on record as 1.49582 ± 0.00063.
For `CCC[N+]1(C)CCCC1.O=S(=O)([N-]S(=O)(=O)C(F)(F)F)C(F)(F)F`, the refractive index was determined as 1.42064 ± 0.00063.

Staying with this series, now noted: 303.15 K; 101.33 kPa; Liquid; Standard Abbe refractometry.
As for `CCn1cc[n+](C)c1.O=S(=O)([N-]S(=O)(=O)C(F)(F)F)C(F)(F)F`, the refractive index was found to be 1.42166 ± 0.00063.
The same measure, in the same setting: the same measure for `CCOS(=O)(=O)[O-].CCn1cc[n+](C)c1` [1-ethyl-3-methylimidazolium ethyl sulfate]: 1.47789 ± 0.00062.
For the compound `CCCCn1cc[n+](C)c1.O=S(=O)([N-]S(=O)(=O)C(F)(F)C(F)(F)C(F)(F)C(F)(F)F)C(F)(F)C(F)(F)C(F)(F)C(F)(F)F`, the refractive index stood at 1.38662 ± 0.00064.
Turning to `CCn1cc[n+](C)c1.N#C[B-](C#N)(C#N)C#N` [1-ethyl-3-methylimidazolium tetracyanoborate], the refractive index turned out to be 1.44592 ± 0.00066.
Same read-out and setting: the same measure for `CCn1cc[n+](C)c1.N#CN=C=[N-]` [1-ethyl-3-methylimidazolium dicyanamide]: 1.51121 ± 0.00065.
Same read-out and setting: the same measure for `CCn1cc[n+](C)c1.O=S(=O)([O-])O` [1-ethyl-3-methylimidazolium hydrogen sulfate]: 1.49601 ± 0.00061; for `CCn1cc[n+](C)c1.F[B-](F)(F)F` [1-ethyl-3-methylimidazolium tetrafluoroborate]: 1.41055 ± 0.00062.
Regarding `CCn1cc[n+](C)c1.N#C[S-]` [1-ethyl-3-methylimidazolium thiocyanate], the refractive index came to 1.54999 ± 0.00064.
Consider `CCn1cc[n+](C)c1.CS(=O)(=O)[O-]` [1-ethyl-3-methylimidazolium methanesulfonate], for which the refractive index is 1.49444 ± 0.00063.
Take `CCC[N+]1(C)CCCC1.O=S(=O)([N-]S(=O)(=O)C(F)(F)F)C(F)(F)F`: the refractive index worked out at 1.41925 ± 0.00063.

Still in this series, the particulars now being: 308.15 K; 101.33 kPa; Liquid; Standard Abbe refractometry.
Consider `CCn1cc[n+](C)c1.O=S(=O)([N-]S(=O)(=O)C(F)(F)F)C(F)(F)F`, for which the refractive index is given as 1.42022 ± 0.00063.
On to `CCOS(=O)(=O)[O-].CCn1cc[n+](C)c1` [1-ethyl-3-methylimidazolium ethyl sulfate], for which the refractive index came out at 1.47657 ± 0.00062.
For the compound `CCCCn1cc[n+](C)c1.O=S(=O)([N-]S(=O)(=O)C(F)(F)C(F)(F)C(F)(F)C(F)(F)F)C(F)(F)C(F)(F)C(F)(F)C(F)(F)F`, the refractive index came to 1.38516 ± 0.00064.
On the same count and under the same terms, in the case of `CCn1cc[n+](C)c1.N#C[B-](C#N)(C#N)C#N` [1-ethyl-3-methylimidazolium tetracyanoborate] it was 1.44421 ± 0.00066; in that of `CCn1cc[n+](C)c1.N#CN=C=[N-]` [1-ethyl-3-methylimidazolium dicyanamide], 1.50963 ± 0.00065; in that of `CCn1cc[n+](C)c1.O=S(=O)([O-])O` [1-ethyl-3-methylimidazolium hydrogen sulfate], 1.49489 ± 0.00061.
For `CCn1cc[n+](C)c1.F[B-](F)(F)F` [1-ethyl-3-methylimidazolium tetrafluoroborate], the refractive index was found to be 1.40934 ± 0.00062.
Same read-out and setting: in the case of `CCn1cc[n+](C)c1.N#C[S-]` [1-ethyl-3-methylimidazolium thiocyanate] it was 1.5485 ± 0.00064; in that of `CCn1cc[n+](C)c1.CS(=O)(=O)[O-]` [1-ethyl-3-methylimidazolium methanesulfonate], 1.49308 ± 0.00063; in that of `CCC[N+]1(C)CCCC1.O=S(=O)([N-]S(=O)(=O)C(F)(F)F)C(F)(F)F`, 1.41792 ± 0.00063.

The same series, now with this note: 313.15 K; 101.33 kPa; Liquid; Standard Abbe refractometry.
Regarding `CCn1cc[n+](C)c1.O=S(=O)([N-]S(=O)(=O)C(F)(F)F)C(F)(F)F`, the refractive index was 1.41881 ± 0.00063.
As for `CCOS(=O)(=O)[O-].CCn1cc[n+](C)c1` [1-ethyl-3-methylimidazolium ethyl sulfate], the refractive index turned out to be 1.47528 ± 0.00062.
On to `CCCCn1cc[n+](C)c1.O=S(=O)([N-]S(=O)(=O)C(F)(F)C(F)(F)C(F)(F)C(F)(F)F)C(F)(F)C(F)(F)C(F)(F)C(F)(F)F`, for which the refractive index is listed as 1.38367 ± 0.00064.
With `CCn1cc[n+](C)c1.N#C[B-](C#N)(C#N)C#N` [1-ethyl-3-methylimidazolium tetracyanoborate], the refractive index came to 1.44252 ± 0.00066.
The same measure, in the same setting: the same measure for `CCn1cc[n+](C)c1.N#CN=C=[N-]` [1-ethyl-3-methylimidazolium dicyanamide]: 1.50808 ± 0.00064; for `CCn1cc[n+](C)c1.O=S(=O)([O-])O` [1-ethyl-3-methylimidazolium hydrogen sulfate]: 1.49379 ± 0.00061; for `CCn1cc[n+](C)c1.F[B-](F)(F)F` [1-ethyl-3-methylimidazolium tetrafluoroborate]: 1.4081 ± 0.00062.
As for `CCn1cc[n+](C)c1.N#C[S-]` [1-ethyl-3-methylimidazolium thiocyanate], the refractive index is reported as 1.54702 ± 0.00064.
Still for that read-out and setting: the same measure for `CCn1cc[n+](C)c1.CS(=O)(=O)[O-]` [1-ethyl-3-methylimidazolium methanesulfonate]: 1.49172 ± 0.00063; for `CCC[N+]1(C)CCCC1.O=S(=O)([N-]S(=O)(=O)C(F)(F)F)C(F)(F)F`: 1.41656 ± 0.00063.

Staying with this series, now noted: 318.15 K; 101.33 kPa; Liquid; Standard Abbe refractometry.
Consider `CCn1cc[n+](C)c1.O=S(=O)([N-]S(=O)(=O)C(F)(F)F)C(F)(F)F`, for which the refractive index is on record as 1.4174 ± 0.00063.
Take `CCOS(=O)(=O)[O-].CCn1cc[n+](C)c1` [1-ethyl-3-methylimidazolium ethyl sulfate]: the refractive index worked out at 1.47395 ± 0.00063.
For the compound `CCCCn1cc[n+](C)c1.O=S(=O)([N-]S(=O)(=O)C(F)(F)C(F)(F)C(F)(F)C(F)(F)F)C(F)(F)C(F)(F)C(F)(F)C(F)(F)F`, the refractive index is given as 1.38222 ± 0.00064.
In the case of `CCn1cc[n+](C)c1.N#C[B-](C#N)(C#N)C#N` [1-ethyl-3-methylimidazolium tetracyanoborate], the refractive index is 1.44081 ± 0.00066.
As for `CCn1cc[n+](C)c1.N#CN=C=[N-]` [1-ethyl-3-methylimidazolium dicyanamide], the refractive index is given as 1.50655 ± 0.00064.
